Key:
[1] = test system: rabbit bullous keratopathy model; test: Corneal endothelial cell injection therapy in rabbit bullous keratopathy model (Example 8); assay type: in vivo; details: 14 days after cell injection; for expression of Na+/K+ ATPase: compared to control
Excerpt: Male Japanese white rabbits (Biotek Co., Ltd., 8 rabbits) were subjected to the following nictitating membrane excision. Each animal was set in a positioner, and the ocular surface was topically anesthetized by instillation of a topical anesthesia (Benoxil instillation 0.4%, Santen Pharmaceutical Co., Ltd.). Then, the root position of the nictitating membrane was pressed with a clamp for 30 sec, and compressing mark was cut with scissors. After excision of the nictitating membrane, the antibiotic ointment (tarivid eye ointment, Santen Pharmaceutical Co., Ltd.) was instilled to prevent infection.
Three days after nictitating membrane excision, phacoemulsification and aspiration surgery (PEA) was performed on the left eye. Under systemic anesthesia, 3 mm incision was formed in the corneoscleral limbus, crystalline lens was excised by a cataract surgery instrument (NIDEK Co., Ltd.), and the incision was sutured with a nylon thread (Mani Inc.). After phacoemulsification and aspiration surgery (PEA), the antibiotic ointment (tarivid eye ointment, Santen Pharmaceutical Co., Ltd.) was instilled to prevent infection. After 5 days from the PEA, the animals were systemically anesthetized by intramuscular administration of Ketalar muscular injection ([…], DAIICHI SANKYO COMPANY, LIMITED., 0.6 ml) and Celactal 2% Injection (Bayer, Ltd., 0.25 ml). Then, Benoxil instillation 0.4% (Santen Pharmaceutical Co., Ltd., one drop) was instilled and the eye was opened using a lid speculum. Thereafter, 1 mm incision was formed in the corneoscleral limbus, and corneal endothelial cells were scraped with a silicon surgical instrument to mechanically detach the cells. The detachment area was confirmed by trypan blue staining.
The corneal endothelial cells were mechanically scraped, the cultured corneal endothelial cells were collected with 0.05% trypsin-EDTA (Invitrogen, Cat. #25300-054) from the culture flask to give a cell suspension. Using Dulbecco's modified Eagle's medium (DMEM) (Invitrogen, 12320-032), the cultured rabbit corneal endothelial cells were suspended in 3 groups of 10 μM compound (I)/DMEM, 100 μM Y-27632/DMEM and DMEM, each at 1.0×10^6 cells/ml. The cell suspension of each group (200 μl (2.0×10^5 cells per one eye)) was injected with a 22 gauge needle to the anterior chamber from the corneoscleral limbus of the prepared rabbit bullous keratopathy model, and the rabbit was fixed looking downward such that the corneal endothelium face was on the upper side and the corneal epithelial face was on the lower side for 3 hours. The fixing with looking downward was performed with appropriate addition of anesthetics, paying sufficient attention to animal protection.
After 14 days from the cell injection, the treated eye was isolated, and a corneoscleral tissue was excised from the isolated eyeball. The obtained corneoscleral tissue was fixed with 4% para-formaldehyde/PBS for 10 min, and blocked overnight with PBS (Invitrogen, Cat. #14190-144) containing 1% BSA (SIGMA, Cat. #A7906-50G). Thereafter, the corneoscleral tissue was divided into two, and treated with Alexa-488 labeling phalloidin staining actin (Invitrogen, Cat. #Al2379), or anti-Na^+/K^+ ATPase antibody, which is a corneal endothelium marker (UP State, Cat. #05-369), for 2 hours. The anti-Na^+/K^+ ATPase antibody treatment group was further treated with Alexa-488 labeled secondary antibody (Invitrogen, Cat. #A-21202) for 1 hour. Thereafter, the cells were immersed in Vectashield (registered trade mark)-DAPI (Vector Laboratories, Cat. #H-1200) solution, and mounted using cover glass. The specimen was observed under a confocal laser microscope.
Taking the number of nuclei stained with DAPI as the corneal endothelial cell count, the DAPI stained images were analyzed by Image-Pro plus (Media Cybernetics, Inc.), and corneal endothelial cells were counted.

[2] = test system: rabbit corneal endothelial cells; test: In vitro wound healing model of rabbit corneal endothelial cells (Example 9); assay type: cell-based
Method: In this Example, test substances and control substance prepared in the same manner as in Example 4 were used. Corneoscleral tissue was collected from 10 rabbit eyeballs purchased from Funakoshi Corporation. The corneoscleral tissue was immersed in DMEM (Invitrogen, Cat. #12320-032) containing 1% penicillin/streptomycin (Invitrogen, Cat. #15140-122), and incubated at 37° C. for 1 hour. The Descemet's membrane was stripped together with intact corneal endothelial cells, immersed in a culture medium (DMEM, 10% FBS, 2 ng/mL bFGF (Invitrogen, Cat. #13256-029), 1% penicillin/streptomycin) containing 2 mg/mL Collagenase A (Roche, Cat. #1088793), and incubated at 37° C. for 2 hours. The cells were collected by centrifugation, washed with the culture medium, and seeded in a T25 flask (Corning Incorporated, Cat. #430639) coated with FNC coating mix (Athena ES, Cat. #0407). The flask were left standing in a 5% CO2 incubator at 37° C., the medium was exchanged every 2-3 days, and the cells were cultured to confluent. The cells that reached confluent were collected, seeded in two 6 well plates (Falcon, Cat. #3046) coated with FNC coating mix, and cultured to confluent. The prepared rabbit corneal endothelial cells were collected, seeded in a 6 well plate at a division ratio of 1:4, and cultured to confluent in the same culture medium as in the above-mentioned (1). Linear wound was created in the confluent cells using 1000 μL chip (6 wounds per well). After creating the linear wounds, the culture medium was exchanged, and 0.95 μM, 1.58 μM and 3.16 μM compound (I), 10 μM Y-27632 and 0.04% DMSO were added. Compound (I) and Y-27632 were dissolved in DMSO in advance, where the DMSO concentration was adjusted to 0.04% for both. The width of the wound at 0, 6, 12 and 24 hours after the addition was photographed over time. The wound width was measured by Image-Pro plus (Media Cybernetics, Inc.). The ratio of wound width at each hour was calculated by taking that at 0 hour after the addition of medicament as 100%, and the time-course changes of the ratio of wound width were evaluated. The ratio of wound width was applied to statistical analysis according to the Dunnett's test at each time point.

Row | SMILES | fibrosis of injected cells (Phalloidin staining) ([1]; 100 μM in cell suspension) | corneal endothelial cell count versus control group ([1]; 100 μM) | expression of Na+/K+ ATPase ([1]; 100 μM) | ratio of wound width versus control ([2]; 10 μM, 24 hours after addition) | fibrosis of injected cells (Phalloidin staining) ([1]; 10 μM in cell suspension) | corneal endothelial cell count versus 100 μM Y-27632 group ([1]; 10 μM) | corneal endothelial cell count versus control group ([1]; 10 μM) | expression of Na+/K+ ATPase ([1]; 10 μM) | concentration showing the highest effect in the in vitro wound healing model [2] | ratio of wound width versus control ([2]; 0.95 μM, 6 hours after addition, Dunnett's test) | wound healing effect ([2]; 1.58 μM) | ratio of wound width versus control ([2]; compound (I), 24 hours after addition, Dunnett's test) | concentration showing a wound healing promoting effect ([2]; in vitro wound healing model, Example 9)
1 | C[C@@H](N)[C@H]1CC[C@H](C(=O)Nc2ccncc2)CC1 [Y-27632, reference compound] | suppression of fibrosis of cells | tended to show higher cell counts than the control group | expression of Na^+/K^+ ATPase was found | showed a difference from the control for the first time | – | – | – | – | – | – | – | – | –
2 | C[C@@H](N)c1ccc(C(=O)Nc2ccnc3[nH]ccc23)cc1.Cl [compound (I), (R)-(+)-N-(1H-pyrrolo[2,3-b]pyridin-4-yl)-4-(1-aminoethyl)benzamide monohydrochloride] | – | – | – | – | suppression of fibrosis of cells | higher than that of the 100 μM Y-27632 treatment group | tended to show higher cell counts than the control group | expression of Na^+/K^+ ATPase was found | about 0.95 μM | statistically significant difference from the control | significant effect, the effect was weaker than that of the 0.95 μM compound (I) | statistically significant difference even 24 hours later | 0.95 to 1.58 µM
